Active and inactive are the calls of the source.
Columns and labels:
[1] = molecular target: Luciferin 4-monooxygenase (Photinus pyralis, UniProt P08659); assay: Counter Screen for Luciferase-based Assay Positives. [Related pubchem assays: 620, 618, 411 ]
HT-1080 = assay: cytotoxicity in HT1080 fibrosarcoma cells, cell-based, fluorescence readout (AID 620); type: functional; settings: Homo sapiens
[2] = ADAM10 protease inhibitors, dose response, selectivity assay for ADAM17 exosite inhibitor project, biochemical, FRET peptide substrate, recombinant human ADAM10 (AID 743259);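 also: ADAM10 enzyme cleaving a FRET peptide substrate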
[3] = molecular target: T1, Disintegrin and metalloproteinase domain-containing protein 17 (Homo sapiens, UniProt P78536); assay: exosite inhibitors of ADAM17, dose response, biochemical (AID 743260)
T1 sequence (P78536 whole entry, the tested form may be a part): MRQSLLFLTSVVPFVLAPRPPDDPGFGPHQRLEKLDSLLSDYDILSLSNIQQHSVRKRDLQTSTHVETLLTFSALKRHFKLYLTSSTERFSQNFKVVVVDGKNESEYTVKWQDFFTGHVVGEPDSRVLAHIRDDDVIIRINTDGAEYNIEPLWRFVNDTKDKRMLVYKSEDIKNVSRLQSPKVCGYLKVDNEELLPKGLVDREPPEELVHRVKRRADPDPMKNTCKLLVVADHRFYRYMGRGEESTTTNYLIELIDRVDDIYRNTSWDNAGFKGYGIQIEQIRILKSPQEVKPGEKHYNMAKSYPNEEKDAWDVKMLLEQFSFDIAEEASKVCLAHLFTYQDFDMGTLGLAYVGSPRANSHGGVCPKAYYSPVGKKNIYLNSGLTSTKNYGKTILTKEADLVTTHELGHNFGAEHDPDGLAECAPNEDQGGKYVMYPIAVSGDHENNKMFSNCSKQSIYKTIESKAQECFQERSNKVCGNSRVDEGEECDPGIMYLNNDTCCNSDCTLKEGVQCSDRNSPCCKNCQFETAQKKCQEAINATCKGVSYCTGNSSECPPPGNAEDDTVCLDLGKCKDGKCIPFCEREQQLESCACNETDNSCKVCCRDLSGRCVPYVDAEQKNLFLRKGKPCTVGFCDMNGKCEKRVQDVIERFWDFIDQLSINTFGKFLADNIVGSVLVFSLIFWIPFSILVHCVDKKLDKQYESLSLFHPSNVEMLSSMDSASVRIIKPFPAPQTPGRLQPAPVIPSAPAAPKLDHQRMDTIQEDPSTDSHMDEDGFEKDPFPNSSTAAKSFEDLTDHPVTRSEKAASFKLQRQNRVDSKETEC

[4] = A cytotoxicity screen of small molecule inhibitors of the PhoP region in Salmonella typhi identified in the primary screen. [Related pubchem assays: 1850, 1864, 1985 ]; type: functional
[5] = molecular target: T2, Sentrin-specific protease 6 (Homo sapiens, UniProt Q9GZR1); type: functional;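 also: Luminescence-based dose-response confirmatory assay of SENP6 inhibition, following up an ultra-high-throughput screen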
T2 sequence (Q9GZR1 whole entry): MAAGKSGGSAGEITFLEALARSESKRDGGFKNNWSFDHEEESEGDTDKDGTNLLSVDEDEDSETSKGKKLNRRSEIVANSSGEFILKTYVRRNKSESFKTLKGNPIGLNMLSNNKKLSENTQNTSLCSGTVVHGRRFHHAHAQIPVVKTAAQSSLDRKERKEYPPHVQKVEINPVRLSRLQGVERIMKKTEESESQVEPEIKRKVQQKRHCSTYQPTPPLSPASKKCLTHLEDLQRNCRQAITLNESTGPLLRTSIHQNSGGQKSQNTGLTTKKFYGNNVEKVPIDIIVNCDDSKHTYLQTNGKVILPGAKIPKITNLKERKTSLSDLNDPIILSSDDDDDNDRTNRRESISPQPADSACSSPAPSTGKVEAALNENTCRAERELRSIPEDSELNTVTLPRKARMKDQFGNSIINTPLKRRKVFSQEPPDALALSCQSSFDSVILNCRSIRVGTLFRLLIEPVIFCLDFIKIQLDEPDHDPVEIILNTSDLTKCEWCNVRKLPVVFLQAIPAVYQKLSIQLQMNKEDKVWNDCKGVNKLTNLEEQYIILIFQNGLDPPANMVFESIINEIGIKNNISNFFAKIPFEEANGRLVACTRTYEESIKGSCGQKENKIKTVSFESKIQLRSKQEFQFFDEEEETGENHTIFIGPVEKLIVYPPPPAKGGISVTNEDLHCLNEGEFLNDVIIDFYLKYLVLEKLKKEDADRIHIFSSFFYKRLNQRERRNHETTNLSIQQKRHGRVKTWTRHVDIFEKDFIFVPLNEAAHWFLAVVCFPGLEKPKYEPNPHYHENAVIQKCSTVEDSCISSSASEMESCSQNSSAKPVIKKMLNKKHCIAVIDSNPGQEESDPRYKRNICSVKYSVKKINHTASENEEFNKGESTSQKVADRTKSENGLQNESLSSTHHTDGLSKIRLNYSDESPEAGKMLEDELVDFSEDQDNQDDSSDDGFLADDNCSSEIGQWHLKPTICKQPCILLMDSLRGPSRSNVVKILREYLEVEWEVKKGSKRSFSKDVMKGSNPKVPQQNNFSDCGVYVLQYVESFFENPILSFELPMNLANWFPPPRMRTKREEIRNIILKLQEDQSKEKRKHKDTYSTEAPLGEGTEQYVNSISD

[6] = molecular target: T3, Sentrin-specific protease 7 (Homo sapiens, UniProt Q9BQF6); type: functional;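 also: Luminescence-based dose-response confirmation of ultra-high-throughput screening hits, measuring inhibition of SENP7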
T3 sequence (Q9BQF6 whole entry): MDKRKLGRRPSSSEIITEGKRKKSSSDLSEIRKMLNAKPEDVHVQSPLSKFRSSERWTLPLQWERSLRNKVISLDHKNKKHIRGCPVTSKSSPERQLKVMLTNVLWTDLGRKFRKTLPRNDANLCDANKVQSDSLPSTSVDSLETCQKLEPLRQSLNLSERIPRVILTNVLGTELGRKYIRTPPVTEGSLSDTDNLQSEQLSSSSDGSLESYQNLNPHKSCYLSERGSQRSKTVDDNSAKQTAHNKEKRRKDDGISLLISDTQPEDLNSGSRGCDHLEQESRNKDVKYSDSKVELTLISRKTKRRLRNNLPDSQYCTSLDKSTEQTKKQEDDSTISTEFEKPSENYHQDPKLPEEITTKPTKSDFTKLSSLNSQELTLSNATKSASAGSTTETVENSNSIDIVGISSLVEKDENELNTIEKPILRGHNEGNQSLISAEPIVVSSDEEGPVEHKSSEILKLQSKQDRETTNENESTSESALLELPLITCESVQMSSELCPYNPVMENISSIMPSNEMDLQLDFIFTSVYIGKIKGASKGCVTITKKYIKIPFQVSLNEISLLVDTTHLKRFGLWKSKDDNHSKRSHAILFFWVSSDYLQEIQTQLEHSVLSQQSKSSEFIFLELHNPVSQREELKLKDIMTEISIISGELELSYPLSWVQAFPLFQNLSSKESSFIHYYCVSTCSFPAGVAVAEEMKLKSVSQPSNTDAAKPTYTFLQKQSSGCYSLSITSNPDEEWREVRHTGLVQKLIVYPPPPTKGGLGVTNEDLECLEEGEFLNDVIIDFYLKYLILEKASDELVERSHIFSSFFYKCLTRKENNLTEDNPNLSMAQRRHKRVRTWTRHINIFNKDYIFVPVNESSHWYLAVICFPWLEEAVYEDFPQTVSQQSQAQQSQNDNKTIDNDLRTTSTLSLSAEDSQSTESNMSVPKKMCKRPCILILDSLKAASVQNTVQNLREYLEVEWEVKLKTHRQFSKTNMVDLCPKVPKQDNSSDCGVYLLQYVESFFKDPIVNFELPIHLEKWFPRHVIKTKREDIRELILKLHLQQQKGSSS

[7] = molecular target: T4, Sentrin-specific protease 8 (Homo sapiens, UniProt Q96LD8); type: functional;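 also: luminescence read-out of SENP8 inhibition, dose-response confirmation following an ultra-high-throughput screen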
T4 sequence (Q96LD8 whole entry): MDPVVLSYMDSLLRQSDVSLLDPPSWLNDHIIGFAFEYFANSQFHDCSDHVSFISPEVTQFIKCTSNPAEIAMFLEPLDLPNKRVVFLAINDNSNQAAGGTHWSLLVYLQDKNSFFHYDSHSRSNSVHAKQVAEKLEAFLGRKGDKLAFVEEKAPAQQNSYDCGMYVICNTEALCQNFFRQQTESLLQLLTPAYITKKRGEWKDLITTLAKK

Caspase-3 = molecular target: T5, Caspase-3 (Homo sapiens, UniProt P42574); type: functional;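 also: Dose-response selectivity test against caspase-3 for candidate inhibitors of sentrin-specific proteases (SENPs)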
T5 sequence (P42574 whole entry): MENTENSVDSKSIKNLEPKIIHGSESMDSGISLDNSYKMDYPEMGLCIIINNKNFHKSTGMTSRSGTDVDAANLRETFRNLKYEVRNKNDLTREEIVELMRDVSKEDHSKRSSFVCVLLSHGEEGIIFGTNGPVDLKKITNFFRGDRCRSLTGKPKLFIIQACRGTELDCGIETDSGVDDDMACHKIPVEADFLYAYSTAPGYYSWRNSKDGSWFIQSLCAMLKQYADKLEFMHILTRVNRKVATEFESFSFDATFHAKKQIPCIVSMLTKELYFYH

[8] = molecular target: T6, Fructose-bisphosphate aldolase (Mycobacterium tuberculosis, UniProt P9WQA3); assay: Fluorescence-based biochemical high throughput dose response assay for inhibitors of the fructose-bisphosphate aldolase (FBA) of M. tuberculosis.; type: functional
T6 sequence (P9WQA3 whole entry): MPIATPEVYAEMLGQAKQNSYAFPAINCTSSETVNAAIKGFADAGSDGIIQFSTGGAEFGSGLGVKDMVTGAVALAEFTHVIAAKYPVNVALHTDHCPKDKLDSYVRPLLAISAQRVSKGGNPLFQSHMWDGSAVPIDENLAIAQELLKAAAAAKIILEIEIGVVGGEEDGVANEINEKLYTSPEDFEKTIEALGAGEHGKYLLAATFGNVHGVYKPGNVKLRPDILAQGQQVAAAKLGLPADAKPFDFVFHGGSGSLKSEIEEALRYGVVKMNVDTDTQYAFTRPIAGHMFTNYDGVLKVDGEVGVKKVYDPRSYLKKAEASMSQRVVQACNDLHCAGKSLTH

[9] = HEK293T cytotoxicity, dose response, cytotoxicity control for miR-122 modulator project, cell-based, inhibitor set, cherry-pick, set 2 (AID 720697); type: functional
Paired box protein Pax-8 = Paired box protein Pax-8 (Homo sapiens, UniProt Q06710); assay: inhibitors of PAX8-driven TPO luciferase reporter, dose response, RMG-I cells, cherry-pick (AID 687027); type: functional, cell-based;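 also: luciferase reporter driven by Pax8 target thyroperoxidase promoter measured by SteadyGlo luminescence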
Sequence of Paired box protein Pax-8 (Q06710 whole entry): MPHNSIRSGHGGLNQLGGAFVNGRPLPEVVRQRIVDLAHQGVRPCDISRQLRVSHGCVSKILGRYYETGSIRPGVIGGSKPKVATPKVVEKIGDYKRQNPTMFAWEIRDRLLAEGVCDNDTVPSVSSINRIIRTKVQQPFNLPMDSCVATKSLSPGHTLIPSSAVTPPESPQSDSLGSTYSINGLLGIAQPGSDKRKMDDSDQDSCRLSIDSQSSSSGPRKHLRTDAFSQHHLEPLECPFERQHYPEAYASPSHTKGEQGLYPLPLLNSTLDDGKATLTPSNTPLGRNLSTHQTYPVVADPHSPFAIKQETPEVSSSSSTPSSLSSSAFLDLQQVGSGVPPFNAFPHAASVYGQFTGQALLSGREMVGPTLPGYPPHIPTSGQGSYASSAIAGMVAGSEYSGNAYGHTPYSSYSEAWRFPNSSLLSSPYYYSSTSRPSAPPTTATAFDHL

[10] = non-specific cell cytotoxicity, dose response, cytotoxicity control for PAX8 inhibitor project, plate reader, dry powder samples (AID 743021); type: functional, cell-based
[11] = molecular target: Heat shock cognate 71 kDa protein (Homo sapiens, UniProt P11142); assay: In Vitro Hsc70 Dose Response Fluorescence Polarization Assay. [Related pubchem assays: 1072 ]
Sequence of Heat shock cognate 71 kDa protein (P11142 whole entry): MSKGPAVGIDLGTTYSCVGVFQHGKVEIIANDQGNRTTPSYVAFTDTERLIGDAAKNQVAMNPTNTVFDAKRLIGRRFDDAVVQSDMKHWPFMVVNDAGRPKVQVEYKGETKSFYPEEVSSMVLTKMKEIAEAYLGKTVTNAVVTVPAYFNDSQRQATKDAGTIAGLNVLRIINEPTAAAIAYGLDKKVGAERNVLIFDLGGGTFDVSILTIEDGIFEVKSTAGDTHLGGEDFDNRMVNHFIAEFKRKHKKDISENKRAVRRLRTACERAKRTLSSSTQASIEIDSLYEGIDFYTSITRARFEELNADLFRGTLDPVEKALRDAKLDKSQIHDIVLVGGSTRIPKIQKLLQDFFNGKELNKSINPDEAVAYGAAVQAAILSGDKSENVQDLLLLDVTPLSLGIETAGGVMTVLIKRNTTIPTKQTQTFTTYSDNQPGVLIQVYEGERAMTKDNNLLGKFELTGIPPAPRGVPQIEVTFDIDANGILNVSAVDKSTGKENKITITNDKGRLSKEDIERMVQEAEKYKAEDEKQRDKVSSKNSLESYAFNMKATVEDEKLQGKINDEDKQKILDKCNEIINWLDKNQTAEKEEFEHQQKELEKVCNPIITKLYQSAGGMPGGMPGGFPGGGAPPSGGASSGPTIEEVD

Bcl-2-related protein A1 [12] = molecular target: T7, Bcl-2-related protein A1 (Mus musculus, UniProt Q07440); assay: Bfl-1 binding inhibitors, SAR follow-up, biochemical, fluorescence polarization (AID 1070)
T7 sequence (Q07440 whole entry): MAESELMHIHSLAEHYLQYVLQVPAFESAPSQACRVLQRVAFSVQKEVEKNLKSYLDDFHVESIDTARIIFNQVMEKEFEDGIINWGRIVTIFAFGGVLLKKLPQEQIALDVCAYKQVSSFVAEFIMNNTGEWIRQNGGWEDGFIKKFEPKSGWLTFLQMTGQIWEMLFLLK

[13] = molecular target: Glyceraldehyde-3-phosphate dehydrogenase (Homo sapiens, UniProt P04406)
Sequence of Glyceraldehyde-3-phosphate dehydrogenase (P04406 whole entry): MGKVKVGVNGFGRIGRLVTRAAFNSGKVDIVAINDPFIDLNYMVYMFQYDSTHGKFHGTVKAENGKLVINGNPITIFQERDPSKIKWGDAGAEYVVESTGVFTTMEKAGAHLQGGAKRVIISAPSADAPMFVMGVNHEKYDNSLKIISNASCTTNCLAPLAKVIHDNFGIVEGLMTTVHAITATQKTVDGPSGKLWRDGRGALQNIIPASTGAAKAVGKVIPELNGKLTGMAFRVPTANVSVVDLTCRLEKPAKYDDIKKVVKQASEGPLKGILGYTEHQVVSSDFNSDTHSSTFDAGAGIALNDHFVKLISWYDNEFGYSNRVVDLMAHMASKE

[14] = molecular target: Heat shock 70 kDa protein 1A (Homo sapiens, UniProt P0DMV8); assay: Hsp70 inhibitors, SAR follow-up, biochemical, fluorescence polarization (AID 1072)
Sequence of Heat shock 70 kDa protein 1A (P0DMV8 whole entry): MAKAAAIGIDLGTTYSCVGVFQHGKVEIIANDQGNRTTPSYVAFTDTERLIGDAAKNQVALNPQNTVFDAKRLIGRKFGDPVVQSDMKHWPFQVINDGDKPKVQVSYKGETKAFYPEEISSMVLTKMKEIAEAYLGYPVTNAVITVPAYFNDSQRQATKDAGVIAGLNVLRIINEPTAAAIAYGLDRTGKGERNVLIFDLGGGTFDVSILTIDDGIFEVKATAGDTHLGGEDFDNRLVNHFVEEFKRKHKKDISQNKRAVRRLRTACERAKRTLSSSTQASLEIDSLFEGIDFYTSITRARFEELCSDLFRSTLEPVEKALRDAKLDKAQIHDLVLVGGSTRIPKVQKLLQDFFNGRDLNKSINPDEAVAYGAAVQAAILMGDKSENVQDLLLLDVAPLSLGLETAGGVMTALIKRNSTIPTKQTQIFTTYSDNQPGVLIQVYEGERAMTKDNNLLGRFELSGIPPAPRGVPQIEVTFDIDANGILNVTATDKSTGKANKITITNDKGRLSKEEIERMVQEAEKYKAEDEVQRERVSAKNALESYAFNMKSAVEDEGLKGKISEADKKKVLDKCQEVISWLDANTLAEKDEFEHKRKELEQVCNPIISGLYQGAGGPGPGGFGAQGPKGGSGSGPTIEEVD

Bcl-2-related protein A1 [15] = molecular target: T7, Bcl-2-related protein A1; assay: Bfl-1 inhibitors blocking BH3 peptide binding, confirmation, biochemical, TR-FRET, mouse Bfl-1 (AID 621);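 also: TR-FRET binding of GST-Bfl-1 to FITC-labelled Bid peptide via terbium antibody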
[16] = cytotoxicity toward NIH3T3 fibroblasts, dose response, counter-screen, cell-based, ATP luminescence, mouse fibroblasts (AID 2010); type: functional;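 also: cells exposed to compound for about 90 hours before reading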
[17] = inhibitors of intracellular T. cruzi replication, confirmation, NIH3T3 host cells, beta-gal luminescence (AID 2044); type: functional, cell-based;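 also: intracellular parasites grown in NIH/3T3 mouse fibroblasts as host cells; luminescent beta-galactosidase reporter signal from transgenic T. cruzi replicating inside host cells; inhibitors lower the luminescence signal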
Prothrombin = Prothrombin (Homo sapiens, UniProt P00734); assay: Thrombin 1536 HTS Dose Response Confirmation. [Related pubchem assays: 1046 (Thrombin 1536 HTS; hits were confirmed in this assay)]; type: functional
[18] = molecular target: T1, Disintegrin and metalloproteinase domain-containing protein 17; assay: ADAM17 protease inhibitors, dose response, counter-screen for ADAM10 exosite inhibitor project, biochemical, quenched FRET substrate (AID 743253)
[19] = ADAM10 inhibitors, peptide cleavage, dose response, biochemical, QFRET (AID 743254);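 also: ADAM10 enzyme with the DM2 quenched FRET peptide as substrate; EDANS fluorescence gain as the protease cuts the substrate; inhibitor potency against ADAM10 proteolytic activity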

Sequence of Luciferin 4-monooxygenase (P08659 whole entry): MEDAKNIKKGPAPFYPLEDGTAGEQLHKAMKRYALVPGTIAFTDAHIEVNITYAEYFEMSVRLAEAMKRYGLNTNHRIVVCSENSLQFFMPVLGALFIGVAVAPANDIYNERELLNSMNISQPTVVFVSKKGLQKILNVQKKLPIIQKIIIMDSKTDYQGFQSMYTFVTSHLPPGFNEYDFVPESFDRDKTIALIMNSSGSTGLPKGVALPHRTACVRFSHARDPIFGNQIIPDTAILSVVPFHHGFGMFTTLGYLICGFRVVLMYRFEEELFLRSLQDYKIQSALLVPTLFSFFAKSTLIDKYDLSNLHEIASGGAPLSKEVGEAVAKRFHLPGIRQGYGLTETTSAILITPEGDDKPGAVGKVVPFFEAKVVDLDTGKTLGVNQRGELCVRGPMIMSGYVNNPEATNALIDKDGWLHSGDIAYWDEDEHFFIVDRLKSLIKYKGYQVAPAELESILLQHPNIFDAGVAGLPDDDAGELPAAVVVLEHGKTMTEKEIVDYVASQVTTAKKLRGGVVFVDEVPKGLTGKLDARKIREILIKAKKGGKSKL

COc1nc(C)ccc1-c1noc(-c2ccco2)n1
EC50 [1]: 1.78 µM (active)
EC50 (HT-1080): > 50 µM (not active)

Cc1cccc(Nc2nnc(SCC(=O)c3ccc(Br)s3)s2)c1C
IC50 [2]: > 69.5 µM (inactive)
IC50 [3]: > 69.5 µM (inactive)

Cc1nc(C)c(-c2ccc(SCc3ccccc3C)nn2)s1
EC50 [4]: > 50 µM (active)

CC(=O)N1C(=O)/C(=C2\SC(=S)N(NC(=O)c3ccc(O)cc3)C2=O)c2ccccc21
IC50 [5]: 3.1 µM (active)
IC50 [6]: 35.3 µM (active)
IC50 [7]: 10.3 µM (active)
IC50 (Caspase-3): 12.9 µM (active)
IC50 [8]: 4.74 µM (active)

CCc1nc2sc(C)c(C)c2c(=O)n1CCO
AC50 [9]: 8.36 µM (active)

COC(=O)C1=C(C)N(Cc2cccc(C(F)(F)F)c2)C(NCC2CC2)=NC1c1cccc(C(F)(F)F)c1 (stereo not drawn)
AC50 (Paired box protein Pax-8): 17.2 µM (active)
AC50 [10]: 20.8 µM (active)

Cc1sc2nc(SCC(=O)c3ccc(O)c(O)c3)n(Cc3ccco3)c(=O)c2c1C
IC50 [2]: > 69.5 µM (inactive)
IC50 [3]: > 69.5 µM (inactive)

CC(=O)N(CCC1(c2ccc(C)cc2)CCOC(C(C)C)C1)Cc1ccco1 (stereo not drawn)
EC50 [4]: > 50 µM (active)

O=C1C(Cl)=C(N2CCN(CCOCCO)CC2)C(=O)N1c1ccc(Cl)c(Cl)c1
IC50 [11]: > 100 µM (not active)
IC50 (Bcl-2-related protein A1 [12]): 0.47 µM (active)
IC50 [13]: > 100 µM (not active)
IC50 [14]: > 100 µM (not active)
IC50 (Bcl-2-related protein A1 [15]): 0.42 µM (active)

CC(C)N(CCn1c(SCC(=O)N2CC(=O)Nc3ccccc32)nc2ccccc2c1=O)C(C)C
EC50 (cells): 0.061 µM (active)
EC50 [16]: > 60 µM (not active)
EC50 [17]: < 0.1 µM (active)

COc1ccc(NC(=S)Nc2ccc3cn[nH]c3c2)cc1
IC50 (Prothrombin): 5.6 µM (active)

O=c1oc(-c2ccccc2[N+](=O)[O-])nc2ccccc12
IC50 (Prothrombin): 0.116 µM (active)

COCC(=O)N(C)C[C@@H]1[C@H](c2ccc(-c3ccccc3)cc2)[C@@H](CO)N1C(C)=O
AC50 [9]: 9.74 µM (active)

CC(C)(C)OC(=O)NCc1ccc(CNC(=O)c2nc[nH]c2C(=O)N[C@@H](Cc2ccccc2)C(=O)OC(C)(C)C)cc1
IC50 [18]: > 69.5 µM (inactive)

CC(C)(C)OC(=O)NCc1ccc(CNC(=O)c2[nH]cnc2C(=O)N[C@@H](Cc2ccccc2)C(=O)OC(C)(C)C)cc1
IC50 [19]: 9.77 µM (active)

CCOc1ccc(CCN2C(=S)N([C@@H](Cc3ccc(O)cc3)CN3CCC[C@@H]3CN3C(=S)NC[C@@H]3CC(C)C)C[C@@H]2Cc2ccc(O)cc2)cc1
AC50 (Paired box protein Pax-8): 8.84 µM (active)
IC50 [18]: > 69.5 µM (inactive)
IC50 [19]: 12.4 µM (inactive)

Cc1ccccc1CN(c1ccc(C(=O)Nc2ccccc2C(=O)NCc2ccco2)cc1)S(C)(=O)=O
IC50 [18]: > 69.5 µM (inactive)
IC50 [19]: > 69.5 µM (inactive)

CCCCN(C)CCNC(=O)c1nn(-c2ccc(OC)cc2)c(=O)c2c1c1ccccc1n2C
EC50 (cells): 0.44 µM (active)
EC50 [16]: > 60 µM (not active)
EC50 [17]: < 0.1 µM (active)

COc1ccc(C2C(=O)c3ccccc3C2=O)cc1OC
IC50 (Prothrombin): > 50 µM (not active)

From ChEMBL document CHEMBL1201862, “PubChem BioAssay data set” (2004)
